Values after ≈ are worked out from the molar mass of the structure shown.
Columns and labels:
Assay type in all cases: functional
Streptococcus pyogenes = experiment: Antibacterial activity against Streptococcus pyogenes ATCC 12344
Enterococcus faecium = experiment: Antibacterial activity against vancomycin-resistant Enterococcus faecium KU1778
Staphylococcus aureus [1] = experiment: Antibacterial activity against methicillin-susceptible Staphylococcus aureus Smith infected iv dosed mouse 1 hr after inoculation
Staphylococcus aureus [2] = experiment: Antibacterial activity against methicillin-resistant Staphylococcus aureus KMP9
Staphylococcus aureus [3] = experiment: Antibacterial activity against methicillin-susceptible Staphylococcus aureus Smith
Streptococcus pneumoniae [4] = experiment: Antibacterial activity against penicillin-susceptible Streptococcus pneumoniae ATCC 49619
Moraxella catarrhalis = experiment: Antibacterial activity against Moraxella catarrhalis K1209
Haemophilus influenzae = experiment: Antibacterial activity against Haemophilus influenzae TH13
Streptococcus pneumoniae [5] = experiment: Antibacterial activity against penicillin-resistant Streptococcus pneumoniae KT2524

Compound	MIC (Streptococcus pyogenes)	MIC (Enterococcus faecium)	ED50 (Staphylococcus aureus [1])	MIC (Staphylococcus aureus [2])	MIC (Staphylococcus aureus [3])	MIC (Streptococcus pneumoniae [4])	MIC (Moraxella catarrhalis)	MIC (Haemophilus influenzae)	MIC (Streptococcus pneumoniae [5])
C=C[C@]1(C)C[C@@H](OC(=O)CSC2CCN(C(=O)CCn3cnc4c(N5CC[C@H](N)C5)ncnc43)CC2)[C@]2(C)[C@H](C)CC[C@]3(CCC(=O)[C@@H]32)[C@@H](C)[C@@H]1O	0.016 µg/mL (≈ 0.0217 µM)	0.125 µg/mL (≈ 0.17 µM)	1.3 mg/kg	0.5 µg/mL (≈ 0.679 µM)	0.125 µg/mL (≈ 0.17 µM)	0.032 µg/mL (≈ 0.0435 µM)	0.125 µg/mL (≈ 0.17 µM)	2 µg/mL (≈ 2.72 µM)	0.032 µg/mL (≈ 0.0435 µM)
C=C[C@]1(C)C[C@@H](OC(=O)CSC2CCN(C(=O)CCn3cnc4c(N5CC[C@@H](N)C5)ncnc43)CC2)[C@]2(C)[C@H](C)CC[C@]3(CCC(=O)[C@@H]32)[C@@H](C)[C@@H]1O	0.008 µg/mL (≈ 0.0109 µM)	0.063 µg/mL (≈ 0.0856 µM)	1.01 mg/kg	0.25 µg/mL (≈ 0.34 µM)	0.063 µg/mL (≈ 0.0856 µM)	0.016 µg/mL (≈ 0.0217 µM)	0.063 µg/mL (≈ 0.0856 µM)	1 µg/mL (≈ 1.36 µM)	0.016 µg/mL (≈ 0.0217 µM)
C=C[C@]1(C)C[C@@H](OC(=O)CSC2CCN(C(=O)CCn3cnc4c(N5CCCC(N)C5)nc(N)nc43)CC2)[C@]2(C)[C@H](C)CC[C@]3(CCC(=O)[C@@H]32)[C@@H](C)[C@@H]1O (stereo not given in full)	0.032 µg/mL (≈ 0.0418 µM)	0.25 µg/mL (≈ 0.327 µM)	2.21 mg/kg	1 µg/mL (≈ 1.31 µM)	0.25 µg/mL (≈ 0.327 µM)	0.063 µg/mL (≈ 0.0823 µM)	0.125 µg/mL (≈ 0.163 µM)	2 µg/mL (≈ 2.61 µM)	0.063 µg/mL (≈ 0.0823 µM)
C=C[C@]1(C)C[C@@H](OC(=O)CSC2CCN(C(=O)CCn3cnc4c(N5CCC(NC)CC5)ncnc43)CC2)[C@]2(C)[C@H](C)CC[C@]3(CCC(=O)[C@@H]32)[C@@H](C)[C@@H]1O	0.032 µg/mL (≈ 0.0419 µM)	0.063 µg/mL (≈ 0.0825 µM)	2.21 mg/kg	0.25 µg/mL (≈ 0.327 µM)	0.125 µg/mL (≈ 0.164 µM)	0.063 µg/mL (≈ 0.0825 µM)	0.125 µg/mL (≈ 0.164 µM)	2 µg/mL (≈ 2.62 µM)	0.063 µg/mL (≈ 0.0825 µM)
C=C[C@]1(C)C[C@@H](OC(=O)CSC2CCN(C(=O)CCn3cnc4c(N5CCC(N(C)C)C5)nc(N)nc43)CC2)[C@]2(C)[C@H](C)CC[C@]3(CCC(=O)[C@@H]32)[C@@H](C)[C@@H]1O (stereo not given in full)	0.063 µg/mL (≈ 0.0809 µM)	0.125 µg/mL (≈ 0.16 µM)	3 mg/kg	0.25 µg/mL (≈ 0.321 µM)	0.25 µg/mL (≈ 0.321 µM)	0.063 µg/mL (≈ 0.0809 µM)	0.125 µg/mL (≈ 0.16 µM)	2 µg/mL (≈ 2.57 µM)	0.063 µg/mL (≈ 0.0809 µM)
C=C[C@]1(C)C[C@@H](OC(=O)CSC2CCN(C(=O)CCn3cnc4c(N5CCC(CN)C5)nc(N)nc43)CC2)[C@]2(C)[C@H](C)CC[C@]3(CCC(=O)[C@@H]32)[C@@H](C)[C@@H]1O (stereo not given in full)	0.032 µg/mL (≈ 0.0418 µM)	0.5 µg/mL (≈ 0.654 µM)	2.84 mg/kg	2 µg/mL (≈ 2.61 µM)	0.5 µg/mL (≈ 0.654 µM)	0.063 µg/mL (≈ 0.0823 µM)	0.125 µg/mL (≈ 0.163 µM)	4 µg/mL (≈ 5.23 µM)	0.125 µg/mL (≈ 0.163 µM)
C=C[C@]1(C)C[C@@H](OC(=O)CSC2CCN(C(=O)CCn3cnc4c(N5CCC(N)CC5)nc(N)nc43)CC2)[C@]2(C)[C@H](C)CC[C@]3(CCC(=O)[C@@H]32)[C@@H](C)[C@@H]1O	0.063 µg/mL (≈ 0.0823 µM)	0.25 µg/mL (≈ 0.327 µM)	1.86 mg/kg	1 µg/mL (≈ 1.31 µM)	0.25 µg/mL (≈ 0.327 µM)	0.063 µg/mL (≈ 0.0823 µM)	0.125 µg/mL (≈ 0.163 µM)	2 µg/mL (≈ 2.61 µM)	0.125 µg/mL (≈ 0.163 µM)
C=C[C@]1(C)C[C@@H](OC(=O)CSC2CCN(C(=O)CCn3cnc4c(N5CCCC(N)C5)ncnc43)CC2)[C@]2(C)[C@H](C)CC[C@]3(CCC(=O)[C@@H]32)[C@@H](C)[C@@H]1O (stereo not given in full)	0.016 µg/mL (≈ 0.0213 µM)	0.032 µg/mL (≈ 0.0427 µM)	2.21 mg/kg	0.125 µg/mL (≈ 0.167 µM)	0.125 µg/mL (≈ 0.167 µM)	0.016 µg/mL (≈ 0.0213 µM)	0.032 µg/mL (≈ 0.0427 µM)	1 µg/mL (≈ 1.33 µM)	0.032 µg/mL (≈ 0.0427 µM)
C=C[C@]1(C)C[C@@H](OC(=O)CSC2CCN(C(=O)CCn3cnc4c(N5CCN(C)CC5)nc(N)nc43)CC2)[C@]2(C)[C@H](C)CC[C@]3(CCC(=O)[C@@H]32)[C@@H](C)[C@@H]1O	0.063 µg/mL (≈ 0.0823 µM)	0.125 µg/mL (≈ 0.163 µM)	8.83 mg/kg	0.125 µg/mL (≈ 0.163 µM)	0.125 µg/mL (≈ 0.163 µM)	0.125 µg/mL (≈ 0.163 µM)	0.063 µg/mL (≈ 0.0823 µM)	2 µg/mL (≈ 2.61 µM)	0.063 µg/mL (≈ 0.0823 µM)
C=C[C@]1(C)C[C@@H](OC(=O)CSC2CCN(C(=O)CCn3cnc4c(N5CCC(CNC)C5)ncnc43)CC2)[C@]2(C)[C@H](C)CC[C@]3(CCC(=O)[C@@H]32)[C@@H](C)[C@@H]1O (stereo not given in full)	0.016 µg/mL (≈ 0.0209 µM)	0.125 µg/mL (≈ 0.164 µM)	0.76 mg/kg	0.5 µg/mL (≈ 0.654 µM)	0.25 µg/mL (≈ 0.327 µM)	0.063 µg/mL (≈ 0.0825 µM)	0.125 µg/mL (≈ 0.164 µM)	2 µg/mL (≈ 2.62 µM)	0.063 µg/mL (≈ 0.0825 µM)
C=C[C@]1(C)C[C@@H](OC(=O)CSC2CCN(C(=O)CCn3cnc4c(N5CC(NC)C5)nc(N)nc43)CC2)[C@]2(C)[C@H](C)CC[C@]3(CCC(=O)[C@@H]32)[C@@H](C)[C@@H]1O	0.125 µg/mL (≈ 0.166 µM)	0.5 µg/mL (≈ 0.666 µM)	3.97 mg/kg	1 µg/mL (≈ 1.33 µM)	0.5 µg/mL (≈ 0.666 µM)	0.063 µg/mL (≈ 0.0839 µM)	0.25 µg/mL (≈ 0.333 µM)	2 µg/mL (≈ 2.66 µM)	0.125 µg/mL (≈ 0.166 µM)
CN[C@H](CC(C)C)C(=O)N[C@H]1C(=O)N[C@@H](CC(N)=O)C(=O)N[C@H]2C(=O)N[C@H]3C(=O)N[C@H](C(=O)N[C@H](C(=O)O)c4cc(O)cc(O)c4-c4cc3ccc4O)[C@H](O)c3ccc(c(Cl)c3)Oc3cc2cc(c3O[C@@H]2O[C@H](CO)[C@@H](O)[C@H](O)[C@H]2O[C@H]2C[C@](C)(N)[C@H](O)[C@H](C)O2)Oc2ccc(cc2Cl)[C@H]1O [VANCOMYCIN]	–	> 128 µg/mL	0.88 mg/kg	–	–	0.25 µg/mL (≈ 0.173 µM)	64 µg/mL (≈ 44.2 µM)	> 128 µg/mL	0.5 µg/mL (≈ 0.345 µM)
